Data taken from ChEMBL document CHEMBL3507680, “University of Dundee, Gates Library screen for HepG2 cell viability”.

Test: Human HepG2 cell viability assay in 384 well format
Format: toxicity, cell-based
Design: dose 125 nL, time 70.5 hour; cytotoxicity at 70.5 h: concentration not given beside the values
Conditions: HepG2 cells, read-out: Inhibition

| SMILES | cytotoxicity at 70.5 h |
| --- | --- |
| O=C(NCCNc1cnccn1)N1CC=C(c2ccc(O)cc2)CC1 | 2.47% |
| N#Cc1ccccc1N1CCN(CCC(=O)N2CCOCC2)CC1 | -3.68% |
| N#Cc1ccccc1N1CCN(C(=O)NCC(=O)N2CCCC2)CC1 | -0.138% |
| COC(=O)c1cc(NS(=O)(=O)c2cn(C)cn2)c(F)cc1F | -2.67% |
| O=C(CCCc1ccccn1)N1CCC(Nc2cccnn2)CC1 | -0.523% |
| CN(Cc1ccc(Cl)cc1)S(=O)(=O)N(C)Cc1cnn(C)c1 | -1.12% |
| Cc1ccnc(N2CCCC(c3noc(C(C)C)n3)C2)n1 (stereo not drawn) | 6.3% |
| CC(C)c1nc(C2CCCN(c3nccc(N4CCCC4)n3)C2)no1 (stereo not drawn) | -2.95% |
| CCc1ccc(C(=O)N2CCCC2c2nnc3n2CCCCC3)o1 (stereo not drawn) | 3.58% |
| CC(C)c1nnc2n1CC(CNCc1cccnc1)CC2 (stereo not drawn) | -6.45% |
| Cc1ncsc1CCN1CCC(N(C)Cc2noc(C(C)C)n2)C1 (stereo not drawn) | 6.17% |
| COCc1csc(NC(=O)NCc2ccccn2)n1 | 5.11% |
| Cc1c(NCC(C)(C)C)cccc1C(=O)N(C)Cc1ncnn1C | 21% |
| Cc1cc(NC(=O)CNC(C)(C)c2ccccc2)on1 | 17.8% |
| O=C(CN1CCN(c2ccnc3c(F)ccc(F)c23)CC1)N1CCCC1 | 8.2% |
| O=C(c1cccnc1OCC(F)(F)F)N1CCCn2ncnc21 | 14.8% |
| O=C(c1ccc(-c2ccccc2)[nH]c1=O)N1CCCn2ncnc21 | -9.78% |
| CC(C)COCCC(=O)Nc1c(-c2ccc(F)cc2)ncn1C | -2.98% |
| Cc1ncc2c(n1)CN(CC(O)COc1ccc(C#N)cc1)CC2 (stereo not drawn) | -3.74% |
| Cn1cnc(-c2ccc(F)cc2)c1NC(=O)CCNC(=O)C(C)(C)C | -7.61% |
| CCNC(=O)C1CCCN1S(=O)(=O)c1sc(=O)[nH]c1C (stereo not drawn) | -4.2% |
| CNC(=O)c1cccc(CCNc2ncc(Br)cn2)c1 | 7.32% |
| Fc1ccc(OC2CCN(Cc3nnc(-c4ccco4)o3)CC2)cc1 | 18.9% |
| COc1ncc(C)cc1NC(=O)COCC(F)(F)F | 2.73% |

| SMILES | cytotoxicity at 70.5 h |
| --- | --- |
| COc1ncc(C)cc1NC(=O)CCc1ccccn1 | 17.6% |
| CCc1csc(NC(=O)NCc2ccccn2)n1 | -2.4% |
| COCc1csc(NC(=O)NCc2ncccc2C)n1 | 0.235% |
| O=C(Nc1ccccc1OCC(F)F)N[C@@H]1C=C[C@H](CO)C1 | 4.97% |
| NC(=O)c1cnc(NC2CCC(c3ccccc3)CC2)c(Cl)c1 (stereo not drawn) | -2.31% |
| CN(c1ncc(C(N)=O)cc1Cl)C1CCC(c2ccccc2)CC1 (stereo not drawn) | -3.58% |
| CC(COc1ccccc1F)NC(=O)N[C@@H]1C=C[C@H](CO)C1 (stereo partly drawn) | -7.04% |
| CN(Cc1ncnn1C)C(=O)c1ccccc1NCc1ccccc1 | 8.8% |
| Cc1nnc(CN2CCC(Oc3ccc(C)c(C)c3)CC2)o1 | -4.89% |
| COc1ccc(-c2cnc(CN3CCCC3CO)o2)cc1 (stereo not drawn) | 7.93% |
| CC(CNS(N)(=O)=O)c1ccc(F)c(F)c1 (stereo not drawn) | 3.38% |
| COCCOc1ncccc1C(=O)N1CCCn2ncnc21 | -5.4% |
| COCCN(Cc1ccccc1)c1cc(C)ncn1 | -6.25% |
| COCc1nc(C(=O)N(Cc2ccccc2)CC(C)C(=O)O)cs1 (stereo not drawn) | -4.63% |
| COCCN(CC(C)C)c1cc(C)ncn1 | 6.75% |
| COc1cccc2[nH]cc(CCNC(=O)N3CCCC3CO)c12 (stereo not drawn) | 2.83% |
| OCC1CCCN1c1cc(NCCc2ccccn2)ncn1 (stereo not drawn) | 14.5% |
| Cn1ccnc1CN(Cc1cccnc1)CC1CCCO1 (stereo not drawn) | -8.2% |
| CN(C)C(=O)C1CCCN1CCCNC(=O)Cc1ccccc1F (stereo not drawn) | -16.1% |
| CCCS(=O)(=O)NC1CCN(c2cccc(F)c2C#N)CC1 | -19.1% |
| O=C(NCCNc1ncccn1)N1CCCC1c1ccncc1 (stereo not drawn) | 1.65% |
| COc1ccc(C2CCCN2C(=O)NCCNc2ccccn2)cc1 (stereo not drawn) | -19.3% |
| O=C(NCC1CC1)C1CSCN1S(=O)(=O)c1ccccc1 (stereo not drawn) | -15.1% |
| Cc1cc(N2CCC(N(C)C(=O)c3ccc(C#N)cc3)CC2)nc(C)n1 | -7.65% |

| SMILES | cytotoxicity at 70.5 h |
| --- | --- |
| Cc1cc(N2CCC(N(C)C(=O)c3ccccc3F)CC2)nc(C)n1 | 15.8% |
| OCC1CCCN1c1cc(NCc2cc3ccccc3o2)ncn1 (stereo not drawn) | -18.3% |
| OCC1CCCN1c1cc(NCCc2ccsc2)ncn1 (stereo not drawn) | -15.1% |
| OCC1CCCN1c1cc(NCCNc2cccnn2)ncn1 (stereo not drawn) | -6.7% |
| CSCC(CCO)NC(=O)Nc1ccc(Br)cc1 (stereo not drawn) | -11.8% |
| Cc1cn(-c2ccccc2)nc1NS(=O)(=O)c1ccc(C(=O)O)cc1F | -18% |
| Cc1cn(-c2ccccc2)nc1NS(=O)(=O)c1ccc(C(=O)O)cc1 | 10.8% |
| N#Cc1cc(F)c(N2CCC(NS(=O)(=O)c3cccs3)CC2)c(F)c1 | -20% |
| O=C(NCCCn1nc2ccccn2c1=O)NCC(C1CC1)C1CC1 | -12.3% |
| O=C(NCCCn1nc2ccccn2c1=O)NC(C1CC1)C1CC1 | -16.5% |
| Cc1n[nH]c(C)c1C1CCCN1C(=O)NCC(=O)Nc1ccccc1 (stereo not drawn) | 6.46% |
| Cc1cc(CN(Cc2cccnc2)CC2CCCO2)on1 (stereo not drawn) | -1.62% |
| Cc1cnc(CN2CCN(c3nc(C)cs3)C(C)C2)cn1 (stereo not drawn) | -16.4% |
| Cc1n[nH]c(C)c1C1CCCN1C(=O)NC(C)(C)C (stereo not drawn) | 4.46% |
| Cc1n[nH]c(C)c1C1CCCN1C(=O)Cc1cccc(F)c1 (stereo not drawn) | -19.6% |
| CCCN1CCC(CNC(=O)N2CCCC2c2c(C)n[nH]c2C)CC1 (stereo not drawn) | 3.87% |
| CC1CN(C)c2ccccc2CN1C(=O)c1ccncc1F (stereo not drawn) | 35% |
| Cc1nc(C)n(CC2CN(CCn3cccn3)CCO2)n1 (stereo not drawn) | 31.9% |
| Cc1ccc(OCCC(=O)NC(C)c2ccncc2)cc1 (stereo not drawn) | -2.16% |
| CS(=O)(=O)NCC1CCCN(C(=O)c2ccc3c(c2)CCC3)C1 (stereo not drawn) | 3.24% |
| Cc1nccn1-c1cc(CNC(=O)c2ccnc(N(C)C)c2)ccn1 | -10.5% |
| CC(C)S(=O)(=O)NCC1CCCN(C(=O)c2ccc(Cl)cc2)C1 (stereo not drawn) | 6.86% |
| Cc1occc1C(=O)N1CCCN(Cc2cnn(C(C)C)c2)CC1 | -6.65% |
| Cc1nc(C)n(CC2CN(CCCc3ccccc3)CCO2)n1 (stereo not drawn) | -4.71% |

| SMILES | cytotoxicity at 70.5 h |
| --- | --- |
| COc1ccc(CCN2CCOC(Cn3nc(C)nc3C)C2)cc1 (stereo not drawn) | -5.86% |
| Cc1cc(C)cc(C(=O)Nc2ccc(CC3CC(=O)NC3=O)cc2)c1 (stereo not drawn) | -1.28% |
| C1CN(c2nc(C3CC3)ns2)CCO1 | -5.18% |
| O=C(NCCOc1ncc(Cl)cc1Cl)c1ccoc1 | 21.7% |
| O=C(NCCOc1ncc(Cl)cc1Cl)c1cccnc1 | 8.03% |
| CCc1ccc(C(=O)Nc2ccc(CC3CC(=O)NC3=O)cc2)s1 (stereo not drawn) | -4% |
| CCc1ccc(CNCC2CCN(CCO)CC2)cc1 | 16.5% |
| Cc1ccc2c(c1)OC1(NC2=O)C(=O)N(C)c2ccccc21 (stereo not drawn) | 16.7% |
| Cc1ccc(CNC(c2ccc(F)cc2)c2nccn2C)o1 (stereo not drawn) | -7.32% |
| Cc1cc(C(C)NC(=O)CCN2C(=O)c3ccccc3C2=O)c(C)o1 (stereo not drawn) | 28.1% |
| O=C(NCCCn1cncn1)c1ccc(-c2ccco2)[nH]c1=O | -3.92% |
| O=C(NCCCn1cncn1)c1ccc(-c2ccccc2)[nH]c1=O | -11.4% |
| Cc1cc(C(=O)NCC2(C(N)=O)CCOCC2)nn1C(C)(C)C | -6.96% |
| CC(C)(C)n1nc(C(=O)NCC2(C(N)=O)CCOCC2)cc1C1CC1 | -22.5% |
| CC(C)(C)n1nc(C2CC2)cc1C(=O)NCC1(C(N)=O)CCOCC1 | 22.2% |
| Cc1nn(C(C)(C)C)c(C)c1C(=O)NCC1(C(N)=O)CCOCC1 | -8.76% |
| CC1CN(C)CCN1C(=O)c1cnn(-c2ccc(Cl)cc2)c1 (stereo not drawn) | 19.4% |
| CCC(C)NC(=O)c1ccc(NC(=O)CCc2ccncc2)c(C)c1 (stereo not drawn) | -3.96% |
| Cc1noc(C)c1CSc1nc(=O)ccn1C(C)C | -3.07% |
| Cc1nc(CN2CCCC(N(C)c3cnc4ccccc4n3)C2)no1 (stereo not drawn) | 20.5% |
| O=C(NCc1ccccc1CO)C1COc2ccccc21 (stereo not drawn) | -0.572% |
| CS(=O)(=O)c1nccn1Cc1ccncc1 | -4.41% |
| CC(CC(=O)N1CCCS1(=O)=O)c1ccccc1C(F)(F)F (stereo not drawn) | 3.27% |
| CCC(C)NC(=O)c1ccc(NC(=O)CCCn2cncn2)c(C)c1 (stereo not drawn) | 14.8% |

| SMILES | cytotoxicity at 70.5 h |
| --- | --- |
| N#CC(NC(=O)CCC1CCC1)c1cnn(-c2ccccc2)c1 (stereo not drawn) | 17.3% |
| N#CC(NC(=O)CC1CCSCC1)c1cnn(-c2ccccc2)c1 (stereo not drawn) | -3.51% |
| CS(=O)(=O)c1nccn1Cc1ccc(OC(F)F)cc1 | -4.68% |
| O=C(c1cc[nH]n1)N(Cc1cccc(O)c1)CC1CC1 | -7.41% |
| CC(NCCn1c(=O)oc2ccccc21)c1ccccn1 (stereo not drawn) | -5.54% |
| Cc1nnc2n1CCN(C(C)c1nnc(-c3cccs3)o1)C2 (stereo not drawn) | -8.71% |
| O=C(c1cc2ccccc2o1)N1CCN(Cn2cc(Cl)cn2)CC1 | -5.33% |
| Cc1noc(C)c1CN(C)C(=O)CCOc1ccc(Cl)cc1 | -11.7% |
| Cc1cc(C(=O)N2CCN(Cn3cc(Cl)cn3)CC2)on1 | -8.38% |
| Cc1ccc(-c2nnc(C(C)N3CCn4c(C)nnc4C3)o2)cc1 (stereo not drawn) | -1.43% |
| CC(NC(N)=O)C(=O)Nc1ccc(OCc2cccc(F)c2)c(F)c1 (stereo not drawn) | -10.3% |
| Cc1cccc(COc2ccc(NC(=O)C(C)NC(N)=O)c(C)c2)c1 (stereo not drawn) | -9.19% |
| Cc1ccccc1OCCC(=O)N(C)Cc1c(C)noc1C | -11.1% |
| CSC(C)C(=O)N1CCN(CC(C)(C)O)CC1 (stereo not drawn) | -14% |
| CC(C)c1ccc(C(=O)O)cc1S(=O)(=O)Nc1ccc(=O)n(C)c1 | 2.84% |
| CCN1CCN(C(=O)Cc2ccc(S(=O)(=O)C(F)F)cc2)CC1 | 5.94% |
| CC(c1nnc(-c2cccs2)o1)N1CCn2c(nnc2C2CC2)C1 (stereo not drawn) | -0.792% |
| Cc1csc(C(C#N)C(=O)Nc2ccccc2)n1 (stereo not drawn) | -0.341% |
| Cc1noc(C)c1CNC(C(=O)N1CCOCC1)C(C)C (stereo not drawn) | -7.07% |
| CCC1CN(C(=O)c2cnc(-c3ccccc3)s2)CCO1 (stereo not drawn) | -1.27% |
| CCc1ccsc1C(=O)N1CCN(C(=O)c2ccc(C)o2)CC1 | -5.92% |
| COC(=O)c1sccc1CN1CCN(C(=O)c2ccc(C)o2)CC1 | -8.65% |
